US20120058997A1, “IMIDAZO[1,2-B]PYRIDAZINE AND PYRAZOLO[1,5-A]PYRIMIDINE DERIVATIVES AND THEIR USE AS PROTEIN KINASE INHIBITORS” (SuperGen, Inc., priority 2006, published 2012)
Like-named read-outs stand apart in the source and are kept apart here.

Key:
PC-3 Cells = experiment: Cell growth inhibition, Cell-Titer-Glo, 96 hours; format: cell-based;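 also: luciferase luminescence reflecting cellular ATP, used as a proxy for cell number, with compound-treated cells compared against DMSO vehicle control wells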
K562 Cells = experiment: Cell growth inhibition, Cell-Titer-Glo, 96 hours; format: cell-based;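 also: luminescent ATP signal as an index of viable cell number, drug-treated versus cells given an equal volume of DMSO vehicle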
Pim-1 kinase = Pim-1 kinase (Homo sapiens, UniProt P11309); experiment: Promega Kinase-Glo Pim-1 kinase inhibition assay; format: biochemical;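 also: in vitro Pim-1 reaction run 2 h at 30 °C, then leftover ATP measured by luciferase luminescence, where signal falls as kinase activity rises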
Pim-1 kinase, sequence (P11309 whole entry): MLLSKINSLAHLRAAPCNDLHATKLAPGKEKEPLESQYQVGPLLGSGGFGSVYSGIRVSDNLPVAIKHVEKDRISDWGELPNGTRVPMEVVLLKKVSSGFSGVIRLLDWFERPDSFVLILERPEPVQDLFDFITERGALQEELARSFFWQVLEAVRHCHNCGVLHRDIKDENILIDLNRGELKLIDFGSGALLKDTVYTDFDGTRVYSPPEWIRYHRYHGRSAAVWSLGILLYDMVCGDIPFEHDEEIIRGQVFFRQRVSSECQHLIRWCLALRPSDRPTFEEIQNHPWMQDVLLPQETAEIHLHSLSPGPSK

[1] = Homo sapiens, Table IX (results), read-out: IC50 (PC-3)
[2] = Homo sapiens, K562, Table IX (results), read-out: IC50 (K562)
[3] = Table VIII (results), values in nM, read-out: IC50(Kinase)
[4] = Table VIII (results), values in uM, read-out: IC50(Kinase)
[5] = Table IX (results), read-out: IC50 (K562)
[6] = Homo sapiens, read-out: IC50 PC-3 Cells (inhibit cell growth to 50% of untreated), Table VI
[7] = Homo sapiens, K562, read-out: IC50 K562 Cells (inhibit cell growth to 50% of untreated), Table VI
[8] = IC50 (Kinase inhibitory activity), Table V, Pim-1 kinase, Kinase-Glo
[9] = Table X, Kinase-Glo, read-out: IC50 on Pim1

## CCN1CCC(CNc2nn3c(-c4cccc(OC(F)(F)F)c4)cnc3cc2C)CC1 [Compound 7-38, N-((1-ethylpiperidin-4-yl)methyl)-7-methyl-3-((trifluoromethoxy)phenyl)imidazo [1,2-b]pyridazin-6-amine]
PC-3 Cells; [1]
  IC50: 5.68 µM
K562 Cells; [2]
  IC50: 1.41 µM

## Cc1cc2ncc(-c3cccc(OC(F)(F)F)c3)n2nc1NCC1CCN(C)CC1 [Compound 7-37, 7-Methyl-N-((1-methylpiperidin-4-yl)methyl)-3-(3-(trifluoromethoxy)phenyl)-imidazo[1,2-b]pyridazin-6-amine]
Pim-1 kinase; [3]
  IC50: 13 nM
PC-3 Cells; [1]
  IC50: 8.95 µM
K562 Cells; [2]
  IC50: 3.89 µM

## CN1CCC(CCNc2ccc3ncc(-c4cc(OC(F)(F)F)ccc4O)n3n2)CC1 [Compound 7-45, 3-(2-Hydroxyl-5-(trifluoromethoxy)phenyl)-N-(2-(1-methylpiperidin-4-yl)ethyl)-imidazo[1,2-b]pyridazin-6-amine]
PC-3 Cells; [1]
  IC50: 52 µM
K562 Cells; [2]
  IC50: 14.9 µM

## Fc1cccc(-c2cnc3ccc(NC4CCCC4)nn23)c1 [Compound 7-15, N-cyclopentyl-3-(3-fluorophenyl)imidazo[1,2-b]pyridazin-6-amine]
Pim-1 kinase; [4]
  IC50: 5350 nM
PC-3 Cells; [1]
  IC50: 70.2 µM
K562 Cells; [2]
  IC50: 20.8 µM

## CC(C)N1CCC(CNc2ccc3ncc(-c4cccc(OC(F)(F)F)c4)n3n2)CC1 [Compound 7-35, N-((1-isopropylpiperidin-4-yl)methyl)-3-(3(trifluoromethoxy)phenyl)imidazo[1,2b]pyridazin-6-amine]
PC-3 Cells; [1]
  IC50: 12.8 µM
K562 Cells; [2]
  IC50: 2.92 µM

## FC(F)(F)Oc1cccc(-c2cnc3ccc(NCCN4CCCC4)nn23)c1 [Compound 7-30, N-(2-(pyrrolidin-1-yl)ethyl)-3-(3-(trifluoromethoxy)phenyl)imidazol[1,2-b]pyridazin-6-amine]
Pim-1 kinase; [3]
  IC50: 761 nM
PC-3 Cells; [1]
  IC50: 9.26 µM
K562 Cells; [2]
  IC50: 9.14 µM

## CC[C@@H](CO)Nc1ccc2ncc(-c3cccc(OC(F)(F)F)c3)n2n1 [Compound 7-32, (S)-2-(3-(3-(trifluoromethoxy)phenyl)imidazo[1,2-b]pyridazin-6-ylamino)butan-1-ol]
Pim-1 kinase; [3]
  IC50: 95 nM
Pim-1 kinase; [4]
  IC50: 1550 nM
PC-3 Cells; [1]
  IC50: 29 µM
K562 Cells; [2]
  IC50: 25.3 µM
K562 Cells; [5]
  IC50: 20 µM

## COc1ccc(OC(F)(F)F)cc1-c1cnc2ccc(NCC3CCN(C(C)C)CC3)nn12 [Compound 7-48, N-((1-isopropylpiperidin-4-yl)methyl)-3-(2-methoxy-5-(trifluoromethoxy)phenyl)-imidazo[1,2-b]pyridazin-6-amine]
PC-3 Cells; [1]
  IC50: 17.7 µM
K562 Cells; [2]
  IC50: 5.7 µM

## CN1CCC(CNc2ccc3ncc(-c4cc(OC(F)(F)F)ccc4O)n3n2)CC1 [Compound 7-43, 3-(2-hydroxy-5-(trifluoromethoxy)phenyl)-N-((1-methylpiperidin-4-yl)methyl)-imidazo[1,2-b]pyridazin-6-amine]
Pim-1 kinase; [4]
  IC50: 1100 nM
K562 Cells; [2]
  IC50: 4.9 µM

## COc1ccc(OC(F)(F)F)cc1-c1cnc2ccc(NCCC3CCN(C)CC3)nn12 [Compound 7-44, 3-(2-methoxy-5-(trifluoromethoxy)phenyl)-N-(2-(1-methylpiperidin-4-yl)ethyl)-imidazo[1,2-b]pyridazin-6-amine]
PC-3 Cells; [1]
  IC50: 17.7 µM
K562 Cells; [2]
  IC50: 5.7 µM

## CC[C@@H](N)COc1ccc2ncc(-c3cccc(OC(F)(F)F)c3)n2n1 [Compound 7-18, (R)-1-(3-(3-(trifluoromethoxy)phenyl)imidazo[1,2-b]pyridazin-6-yloxy)butan-2-amine]
Pim-1 kinase; [3]
  IC50: 481 nM
K562 Cells; [2]
  IC50: 5.82 µM

## Cc1ccc(S(=O)(=O)Nc2ccc(Nc3ccn4ncc(-c5cccc(N)c5)c4n3)cc2)cc1 [Compound 3-9]
PC-3 Cells; [6]
  IC50: 12 µM
K562 Cells; [7]
  IC50: 20.6 µM

## CCN1CCC(CNc2ccc3ncc(-c4cccc(OC(F)(F)F)c4)n3n2)CC1 [Compound 7-39, N-((1-ethylpiperidin-4-yl)methyl)-3-(3-(trifluoromethoxy)phenyl)imidazo[1,2-b]pyridazin-6-amine]
PC-3 Cells; [1]
  IC50: 5.82 µM
K562 Cells; [2]
  IC50: 1.66 µM

## Cc1ccc(S(=O)(=O)Nc2ccc(Nc3ccn4ncc(-c5cccc(N(C)C)c5)c4n3)cc2)cc1 [Compound 3-13]
Pim-1 kinase; [8]
  IC50: 52100 nM
PC-3 Cells; [6]
  IC50: 12.8 µM
K562 Cells; [7]
  IC50: 29.3 µM

## COc1ccc(OC(F)(F)F)cc1-c1cnc2ccc(NCC3CCN(C)CC3)nn12 [Compound 7-42, 3-(2-methoxy-5-(trifluoromethoxy)phenyl)-N-((1-methylpiperidin-4-yl)methyl)-imidazo[1,2-b]pyridazin-6-amine]
PC-3 Cells; [1]
  IC50: 8.96 µM
K562 Cells; [2]
  IC50: 9.6 µM

## Cc1cc2ncc(-c3cccc(OC(F)(F)F)c3)n2nc1OCC1CCN(C)CC1 [Compound 7-34, 7-methyl-6-((1-methylpiperidin-4-yl)methoxy)-3-(3(trifluoromethoxy)phenyl) imidazo[1,2-b]pyridazine]
Pim-1 kinase; [3]
  IC50: 272 nM
PC-3 Cells; [1]
  IC50: 7.21 µM
K562 Cells; [2]
  IC50: 1.73 µM

## CCC(CO)Nc1ccc2ncc(-c3ccc(NS(C)(=O)=O)cc3)n2n1 (centres unmarked) [Compound 1-3]
Pim-1 kinase; [8]
  IC50: 5350 nM
PC-3 Cells; [6]
  IC50: 39 µM
K562 Cells; [7]
  IC50: 80.2 µM

## Fc1cccc(-c2ccc3ncc(-c4cccc(F)c4)n3n2)c1 [Compound 7-9]
Pim-1 kinase; [4]
  IC50: 86600 nM
PC-3 Cells; [1]
  IC50: 21.2 µM
K562 Cells; [2]
  IC50: 6.76 µM

## NS(=O)(=O)c1ccc(CNc2ccc3ncc(-c4ccc(CCC(=O)O)cc4)n3n2)cc1 [Compound 1-1]
Pim-1 kinase; [8]
  IC50: 4470 nM
PC-3 Cells; [6]
  IC50: > 300 µM
K562 Cells; [7]
  IC50: > 300 µM

## CN(C)c1cccc(-c2cnc3ccc(NCCCCO)nn23)c1 [Compound 7-4, 12-(3-(3-(dimethylamino)phenyl)imidazo[1,2-b]pyridazin-6-ylamino)butan-1-ol]
Pim-1 kinase; [4]
  IC50: 1810 nM
PC-3 Cells; Table IX (results), read-out: IC50 (PC-3)
  IC50: 54.6 µM
K562 Cells; [5]
  IC50: 13.6 µM

## FC(F)(F)Oc1cccc(-c2ccc3ncc(-c4cccc(OC(F)(F)F)c4)n3n2)c1 [Compound 7-13]
PC-3 Cells; [1]
  IC50: 63.2 µM
K562 Cells; [2]
  IC50: 19.1 µM

## Fc1ccc(-c2ccc3ncc(-c4ccc(F)cc4)n3n2)cc1 [Compound 7-7]
Pim-1 kinase; [4]
  IC50: 9760 nM
PC-3 Cells; [1]
  IC50: 87.2 µM
K562 Cells; [2]
  IC50: 271 µM

## CCN1CCC(CNc2ccc3ncc(-c4cc(OC(F)(F)F)ccc4O)n3n2)CC1 [Compound 7-47, N-((1-ethylpiperidin-4-yl)methyl)-3-(2-hydroxy-5-(trifluoromethoxy)phenyl)-imidazo[1,2-b]pyridazin-6-amine]
Pim-1 kinase; [3]
  IC50: 310 nM
PC-3 Cells; [1]
  IC50: 57.4 µM
K562 Cells; [2]
  IC50: 11.3 µM

## CO[C@H]1CC[C@H](Nc2ccn3ncc(-c4cccc(OC(F)(F)F)c4)c3n2)CC1 [Compound 8-49, 4-(trans-Methoxycyclohexyl)-3-(3-(trifluoromethoxy)phenyl)pyrazolo[1,5-a]pyrimidin-5-amine]
Pim-1 kinase; [9]
  IC50: 100 to 1000 nM

## O=S1(=O)CCC(CNc2ccn3ncc(-c4cccc(OC(F)(F)F)c4)c3n2)CC1 [Compound 8-51, 4-(((3-(3-(Trifluoromethoxy)phenyl)pyrazolo[1,5-a]pyrimidin-5-yl)amino)methyl)tetrahydro-2H-thiopyran 1,1-dioxide]
Pim-1 kinase; [9]
  IC50: 100 to 1000 nM

## FC1(F)CCC(CNc2ccc3ncc(-c4cccc(OC(F)(F)F)c4)n3n2)CC1 [Compound 8-17, N-((4,4-difluorocyclohexyl)methyl)-3-(3-(trifluoromethoxy)phenyl)imidazo[1,2-b]pyridazin-6-amine]
Pim-1 kinase; [9]
  IC50: 1000 to 5000 nM

## FC(F)(F)Oc1cccc(-c2cnc3ccc(NCCN4CCOCC4)nn23)c1 [Compound 8-44, N-(2-morpholinoethyl)-3-(3-(trifluoromethoxy)phenyl)imidazo[1,2-b]pyridazin-6-amine]
Pim-1 kinase; [9]
  IC50: 10 to 100 nM

## O=C1CC(CNc2ccc3ncc(-c4cccc(OC(F)(F)F)c4)n3n2)CCN1 (centres unmarked) [Compound 8-23, 4-(((3-(3-(Trifluoromethoxy)phenyl)imidazo[1,2-b]pyridazin-6-yl)amino)methyl)piperidin-2-one]
Pim-1 kinase; [9]
  IC50: 1000 to 5000 nM

## N[C@H]1CC[C@H](Nc2ccc3ncc(-c4cccc(Cl)c4)n3n2)CC1 [Compound 8-68]
Pim-1 kinase; [9]
  IC50: 10 to 100 nM

## CC(C)(O)[C@H]1CC[C@H](Nc2ccn3ncc(-c4cccc(C(F)(F)F)c4)c3n2)CC1 [Compound 8-56]
Pim-1 kinase; [9]
  IC50: 10 to 100 nM

## CCN1CCC(CNc2ccc3ncc(-c4cc(OC(F)(F)F)ccc4OC)n3n2)CC1 [Compound 7-46, N-((1-ethylpiperidin-4-yl)methyl)-3-(2-methoxy-5-(trifluoromethoxy)phenyl)-imidazol[1,2-b]pyridazin-6-amine]
PC-3 Cells; [1]
  IC50: 10.6 µM
K562 Cells; [2]
  IC50: 5.3 µM

## O[C@@H]1CC[C@@H](Nc2ccc3ncc(-c4cccc(OC(F)(F)F)c4)n3n2)C1 [Compound 8-5, (1R,3R)3-((3-(3-(Trifluoromethoxy)phenyl)imidazo[1,2-b]pyridazin-6-yl)amino)cyclopentanol]
Pim-1 kinase; [9]
  IC50: 10 to 100 nM

## CO[C@H]1CC[C@H](Nc2ccc3ncc(-c4cccc(Cl)c4)n3n2)CC1 [Compound 8-38, 3-(3-Chlorophenyl)-N-(4-trans-methoxycyclohexyl)imidazo[1,2-b]pyridazin-6-amine]
Pim-1 kinase; [9]
  IC50: 10 to 100 nM

## CO[C@H]1CC[C@H](Nc2ccn3ncc(-c4cccc(C(F)(F)F)c4)c3n2)CC1 [Compound 8-57, 4-(trans-Methoxycyclohexyl)-3-(3-(trifluoromethyl)phenyl)pyrazolo[1,5-a]pyrimidin-5-amine]
Pim-1 kinase; [9]
  IC50: 10 to 100 nM

## CC(C)N1CCC(CNc2ccc3ncc(-c4cc(OC(F)(F)F)ccc4O)n3n2)CC1 [Compound 7-49, N-((1-isopropylpiperidin-4-yl)methyl)-3-(2-hydroxy-5-(trifluoromethoxy)phenyl)-imidazo[1,2-b]pyridazin-6-amine]
Pim-1 kinase; [3]
  IC50: 310 nM

## N[C@H]1CCCN(c2ccc3ncc(-c4cccc(OC(F)(F)F)c4)n3n2)C1 [Compound 8-25, (S)-1-(3-(3-(Trifluoromethoxy)phenyl)imidazo[1,2-b]pyridazin-6-yl)piperidin-3-amine]
Pim-1 kinase; [9]
  IC50: 10 to 100 nM
